Experimental data: ChEMBL document CHEMBL1155096, “A regiospecific synthesis of a series of 1-sulfonyl azepinoindoles as potent 5-HT6 ligands” (Bioorg Med Chem Lett, 2008)
Active and inactive are the calls of the source. No cut-off for these calls is given here.

How the values were obtained:
[1] = target: T1, 5-hydroxytryptamine receptor 6 (Homo sapiens, UniProt P50406); experiment: Displacement of [3H]-LSD from cloned human 5HT6 receptor expressed in HeLa cells; type: cell-based
[2] = target: T1, 5-hydroxytryptamine receptor 6; experiment: Antagonist activity at cloned human 5HT6 receptor expressed in HeLa cells assessed as production of cAMP; type: functional, cell-based
[3] = target: T2, 5-hydroxytryptamine receptor 2C (Homo sapiens, UniProt P28335); experiment: Inhibition of 5HT2C
T2 sequence (P28335 whole entry): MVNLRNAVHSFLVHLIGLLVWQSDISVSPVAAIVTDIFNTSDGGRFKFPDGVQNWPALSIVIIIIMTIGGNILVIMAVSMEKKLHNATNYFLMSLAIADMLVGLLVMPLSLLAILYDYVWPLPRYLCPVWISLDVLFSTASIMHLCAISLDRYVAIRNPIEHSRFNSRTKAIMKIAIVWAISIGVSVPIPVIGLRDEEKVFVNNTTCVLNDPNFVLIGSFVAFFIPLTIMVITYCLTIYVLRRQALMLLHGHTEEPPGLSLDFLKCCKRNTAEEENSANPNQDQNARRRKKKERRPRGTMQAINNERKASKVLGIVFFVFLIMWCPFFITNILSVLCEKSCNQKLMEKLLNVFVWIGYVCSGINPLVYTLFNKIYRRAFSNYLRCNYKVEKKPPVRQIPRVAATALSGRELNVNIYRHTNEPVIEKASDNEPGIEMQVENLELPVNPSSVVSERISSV

T1 sequence (P50406 whole entry): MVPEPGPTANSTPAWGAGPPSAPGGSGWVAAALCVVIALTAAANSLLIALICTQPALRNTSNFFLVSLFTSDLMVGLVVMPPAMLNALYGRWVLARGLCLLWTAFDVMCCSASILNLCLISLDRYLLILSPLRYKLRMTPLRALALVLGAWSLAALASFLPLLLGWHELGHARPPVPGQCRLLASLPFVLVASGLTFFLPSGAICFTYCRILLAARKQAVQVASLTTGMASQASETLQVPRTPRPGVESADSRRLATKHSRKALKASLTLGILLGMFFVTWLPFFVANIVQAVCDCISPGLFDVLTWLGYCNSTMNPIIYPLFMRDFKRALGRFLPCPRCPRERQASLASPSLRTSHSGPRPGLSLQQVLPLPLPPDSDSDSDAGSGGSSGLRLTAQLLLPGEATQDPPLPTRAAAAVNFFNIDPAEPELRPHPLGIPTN

| Ki [1] | Activity [2] | Ki [3] | IC50 [2] | SMILES |
| --- | --- | --- | --- | --- |
| 193 nM | Active | – | – | O=S(=O)(c1ccccc1)n1c2c(c3ccccc31)CCNCC2 |
| 19 nM | – | 14 nM | 162 nM | COc1ccccc1S(=O)(=O)n1c2c(c3ccccc31)CCNCC2 |
| 89 nM | Active | – | – | O=S(=O)(c1cccc(C(F)(F)F)c1)n1c2c(c3ccccc31)CCNCC2 |
| 253 nM | Active | – | – | COc1cccc(S(=O)(=O)n2c3c(c4ccccc42)CCN(C2CCCCC2)CC3)c1 |
| 33 nM | Active | – | – | COc1ccc(S(=O)(=O)n2c3c(c4ccccc42)CCNCC3)cc1 |
| 18 nM | Active | – | – | O=S(=O)(c1ccc(Cl)cc1)n1c2c(c3ccccc31)CCNCC2 |
| 12 nM | Active | – | – | CCN1CCc2c(n(S(=O)(=O)c3ccccc3)c3ccccc23)CC1 |
| 24 nM | Active | – | – | O=S(=O)(c1ccc2c(Cl)cccc2c1)n1c2c(c3ccccc31)CCNCC2 |
| 33 nM | Active | – | – | O=S(=O)(c1cccc(F)c1)n1c2c(c3ccccc31)CCNCC2 |
| 319 nM | Active | – | – | COc1cccc(S(=O)(=O)n2c3c(c4ccccc42)CCN(Cc2ccccc2)CC3)c1 |
| 12 nM | Active | – | – | COc1cccc(S(=O)(=O)n2c3c(c4ccccc42)CCNCC3)c1 |
| 19 nM | Active | – | – | O=S(=O)(c1ccccc1Cl)n1c2c(c3ccccc31)CCNCC2 |
| 504 nM | Active | – | – | COc1cccc(S(=O)(=O)n2c3c(c4ccccc42)CCN(CCc2ccccc2)CC3)c1 |

| SMILES | Ki [1] | Activity [2] | Ki [3] | IC50 [2] |
| --- | --- | --- | --- | --- |
| COc1cccc(S(=O)(=O)n2c3c(c4ccccc42)CCN(C2CCCC2)CC3)c1 | 324 nM | Active | – | – |
| O=S(=O)(c1ccc(F)cc1)n1c2c(c3ccccc31)CCNCC2 | 23 nM | Active | – | – |
| CCN1CCc2c(n(S(=O)(=O)c3cccc(OC)c3)c3ccccc23)CC1 | 50 nM | Active | – | – |
| COc1cccc(S(=O)(=O)n2c3c(c4ccccc42)CCN(C(C)C)CC3)c1 | 85 nM | Active | – | – |
| CCCN1CCc2c(n(S(=O)(=O)c3cccc(OC)c3)c3ccccc23)CC1 | 124 nM | Active | – | – |
| O=S(=O)(c1ccc(C(F)(F)F)cc1)n1c2c(c3ccccc31)CCNCC2 | 46 nM | Active | – | – |
| COc1cccc(S(=O)(=O)n2c3c(c4ccccc42)CCN(C)CC3)c1 | 19 nM | Active | – | – |
| Cc1cccc(S(=O)(=O)n2c3c(c4ccccc42)CCNCC3)c1 | 68 nM | Active | – | – |
| Cc1ccc(S(=O)(=O)n2c3c(c4ccccc42)CCNCC3)cc1 | 29 nM | Active | – | – |
| O=S(=O)(c1cccc(Cl)c1)n1c2c(c3ccccc31)CCNCC2 | 41 nM | Active | – | – |
